Experimental findings from US20110319640A1, “LARGE-SCALE PURIFICATION OF 2-PYRONE-4,6-DICARBOXYLIC ACID” (KABUSHIKI KAISHA TOYOTA JIDOSHOKKI, priority 2007, published 2011) are described below.

The series is described as follows: water solubility of PDC and PDC complex salts (FIG. 2). The series is classed as physicochemical. To be noted: in water; free compound. The text has this:
Hereinafter, a complex salt formed centering on the Carbonyl group of PDC may be referred to as “a PDC complex salt,” in order to distinguish from a complex salt described in the section of salts of cations. The structure of a […] complex salt is described in many references (for example, Acta. Cryst. (1992) C48, 460-465).

In the case of `O=C(O)c1cc(C(=O)O)oc(=O)c1` [free PDC, 2-pyrone-4,6-dicarboxylic acid], the water solubility came to 182 mM.
